According to patent US6156801A, “2-phenoxyaniline derivatives” (Taisho Pharmaceutical Co., Ltd., priority 1997, dated 2000):
Where a name gives a salt, the structure may show the parent alone.

biological target: T1, Na^+ /Ca^2+ exchange system (Canis lupus familiaris, UniProt P23685); assay: Inhibitory action on Na+/Ca2+ exchange system using myosarcolemmal vesicles (45Ca uptake); format: biochemical; settings: sarcolemmal vesicles from dog ventricular muscles; Na+-loaded; 20 μM [45Ca]-calcium chloride, pH 7.4, 10 seconds uptake
T1 construct: Sarcolemmal vesicles which were prepared from the removed dog ventricular muscles; from tissue; host or cells: dog ventricular muscle, sarcolemmal vesicles
Experimental: Inhibitors Action on a Na^+ /Ca^2+ Exchange System using Myosarcolemmal Vesicles Sarcolemmal vesicles which were prepared from the removed dog ventricular muscles by referring to the method described in the literature (L. R. Jones, Methods, Enzymol., 1988, 157, pp. 85) were used. A Na^+ /Ca^2+ exchange activity using the sarcolemmal vesicles was measured by referring to the method described in the literature (K. D. Philipson, et al., J. Biol. Chem., 1980, 255, pp. 6880). First, the sarcolemmal vesicles were suspended in a sodium-containing solution [160 mM sodium chloride, 20 mM […] (pH 7.4)] to make up to a protein concentration of 1.5 mg/ml, and allowed to stand for an hour to load Na^+ in the sarcolemmal vesicles. To 2.5 μl of the sarcolemmal vesicles was added 125 μl of a [^45 Ca]-calcium chloride solution [20 μM [^45 Ca]-calcium chloride, 160 mM potassium chloride and 20 mM Mops-Tris (pH 7.4)], and after 10 seconds, 900 μl of an ice-cooled lanthanum chloride solution [10 mM lanthanum chloride, 160 mM potassium chloride and 20 mM Mops-Tris (pH 7.4)] was added. The sarcolemmal vesicles were recovered on a nitrocellulose filter by suction filtration and washed three times with 900 μl of a lanthanum chloride solution. The concentration of Ca^2+ uptake in the sarcolemmal vesicles was determined by measuring a ^45 Ca radioactivity by a scintillator. In addition, a Na^+ /Ca^2+ exchange activity-independent Ca^2+ uptake in the sarcolemmal vesicles was determined by carrying out the same procedure using a potassium-containing solution [160 mM potassium chloride, 20 mM Tris-hydrochloric acid (pH 7.4)] instead of the sodium-containing solution. The test compound was used as a dimethyl sulfoxide solution thereof, and its inhibitory effect was evaluated in comparison with the vehicle-treatedgroup. The IC50 value was determined from a dose inhibition curve of the test compound by using the minimum square method.

Compound | IC50 [nM]
Nc1cccc(N)c1Oc1ccc(OCc2ccccc2)cc1 [Example 14, 2-[4-(Benzyloxy)phenoxy]-1,3-phenylenediamine dihydrochloride] | 8200
NC(=O)COc1ccc(Oc2ccc(OCc3ccccc3)cc2)c(N)c1 [Example 19, 3-Amino-4-[4-(benzyloxy)phenoxy]phenoxy-acetamide hydrochloride] | 14000
COC(=O)COc1ccc(Oc2ccc(OCc3ccccc3)cc2)c(N)c1 [Example 20, Methyl 3-amino-4-[4-(benzyloxy)-phenoxy]phenoxyacetate hydrochloride] | 2800

Now those with a lower IC50, led by results:

IC50 [nM] | Compound
1100 | COc1ccc(Oc2ccc(OCc3ccccc3)cc2)c(N)c1 [Example 1, 2-[4-(Benzyloxy)phenoxy]-5-methoxyaniline hydrochloride]
2500 | CCOc1ccc(Oc2ccc(OCc3ccccc3)cc2)c(N)c1 [Example 17, 2-[4-(Benzyloxy)phenoxy-5-ethoxyaniline hydrochloride]
